Measurements as given in ChEMBL document CHEMBL2062489, “Design, synthesis and biological evaluation of simplified side chains of the macrolide antibiotic etnangien” (2012).
≈ marks a conversion by molar mass, not a printed value. Calls of active or inactive are those of the source. No cut-off for these calls is given here.

Legend:
Staphylococcus aureus = test: Antimicrobial activity against Staphylococcus aureus by serial dilution method; type: functional
Saccharomyces cerevisiae = test: Antimicrobial activity against Saccharomyces cerevisiae by serial dilution method; type: functional
Bacillus subtilis = test: Antimicrobial activity against Bacillus subtilis by serial dilution method; type: functional
Micrococcus luteus = test: Antimicrobial activity against Micrococcus luteus by serial dilution method; type: functional
Agromyces mediolanus = test: Antimicrobial activity against Corynebacterium mediolanum by serial dilution method; type: functional
Mycolicibacterium phlei = test: Antimicrobial activity against Mycobacterium phlei by serial dilution method; type: functional
Escherichia coli = test: Antimicrobial activity against Escherichia coli by serial dilution method; type: functional
[1] = system: Corynebacterium glutamicum; test: Antimicrobial activity against Corynebacterium glutamicum by serial dilution method; type: functional
Mycobacterium sp. = test: Antimicrobial activity against Mycobacterium sp. by serial dilution method; type: functional, organism-based
Gordonia rubripertincta = test: Antimicrobial activity against Nocardia coralline by serial dilution method; type: functional

MIC (Staphylococcus aureus) [µg/mL] | MIC (Saccharomyces cerevisiae) [µg/mL] | MIC (Bacillus subtilis) [µg/mL] | MIC (Micrococcus luteus) [µg/mL] | MIC (Agromyces mediolanus) [µg/mL] | MIC (Mycolicibacterium phlei) [µg/mL] | MIC (Escherichia coli) [µg/mL] | MIC [1] [µg/mL] | Compound | Activity (Mycobacterium sp.) | Activity (Gordonia rubripertincta)
> 80 | > 80 | > 80 | > 80 | > 80 | > 40 | > 80 | > 80 | COC(=O)CC/C=C/[C@@H](O)C/C=C/C=C/C=C/CC/C=C/C=C/[C@@H](O)[C@@H](C)COCc1ccc(OC)cc1 | – | –
80 (≈ 198 µM) | > 80 | 20 (≈ 49.4 µM) | > 80 | 40 (≈ 98.9 µM) | > 40 | > 80 | 80 (≈ 198 µM) | COC(=O)CC/C=C/[C@@H](O)C/C=C/C=C/C=C/CC/C=C/C=C/[C@@H](O)[C@@H](C)CO | – | –
> 80 | > 80 | > 80 | > 80 | > 80 | > 40 | > 80 | 80 (≈ 161 µM) | COC(=O)CC/C=C/[C@@H](O)C/C=C/C=C/C=C/C=C/C=C/[C@@H](O)[C@@H](C)COCc1ccc(OC)cc1 | – | –
> 80 | > 80 | > 80 | > 80 | > 80 | > 40 | > 80 | > 80 | COC(=O)CC/C=C/[C@@H](O)C/C=C/C=C/C=C/C=C/C=C/[C@@H](O)[C@@H](C)CO | – | –
> 40 | > 40 | > 40 | > 40 | > 40 | > 40 | > 40 | > 40 | COC(=O)CC/C(C)=C/[C@@H](O)C/C=C/C=C/C=C/C=C/C=C/C(C)=C/[C@@H](O)[C@@H](C)COCc1ccc(OC)cc1 | – | –
1 (≈ 1.19 µM) | > 80 | 10 (≈ 11.9 µM) | 0.39 (≈ 0.464 µM) | 0.06 (≈ 0.0713 µM) | 0.12 (≈ 0.143 µM) | > 80 | 0.03 (≈ 0.0357 µM) | CO[C@@H]1C/C=C\C=C\C[C@H](C)[C@@H](O)[C@H](C)[C@@H](O)[C@H](C)[C@H](O)CC(=O)O[C@H]([C@H](C)[C@H](O)/C=C(C)/C=C/C=C/C=C/C=C/C=C/C[C@H](O)/C(C)=C/CCC(=O)O)C[C@H](O)CCC1 [ETNANGIEN] | Active | Active
2.5 (≈ 2.92 µM) | > 40 | 20 (≈ 23.4 µM) | 0.06 (≈ 0.0702 µM) | – | – | > 20 | 0.24 (≈ 0.281 µM) | COC(=O)CC/C=C(\C)[C@@H](O)C/C=C/C=C/C=C/C=C/C=C/C(C)=C/[C@@H](O)[C@@H](C)[C@@H]1C[C@H](O)CCC[C@H](OC)C/C=C\C=C\C[C@H](C)[C@@H](O)[C@H](C)[C@@H](O)[C@H](C)[C@H](O)CC(=O)O1 [ETNANGIEN METHYL ESTER] | Active | Active
